Results reported in patent US20200108043A1, “COMPOUNDS AND COMPOSITIONS FOR EXTENDING LIFESPAN OF A SUBJECT” (YALE UNIVERSITY, priority 2017, published 2020).
“Also recorded” adds a separate entry of the source. Where a name gives a salt, the structure may show the parent alone.

Each molecule was assayed on Saccharomyces cerevisiae (assay: High-Life (High throughput replicative Lifespan measurement) flow cytometry assay in MEP yeast). Settings: 10 μM, 24 hours in culture, 3-4 replicate wells, repeat of screen hits.
Assay type: cell-based
Method: Cells were labeled with NHS-fluorescein as described above, then diluted to 20 cells/μL in media. 80 μL/well was aliquoted to 384-well plates, which were covered with a breathable membrane and placed on a shaker platform in a humidified incubator. After 3 hours, the plates were removed from the incubator and each well was treated with 20 μL pre-warmed, 30° C. 5 μM β-estradiol in media. In the case of ibuprofen or compound-treated wells, the compound was diluted in this volume at a 5× concentration to achieve a final concentration of 10 μM, or 100 μM for ibuprofen. The plates were then returned to the incubator. At indicated times, one plate was removed from the incubator and placed on an autosampler cooled to 8° C. attached to a Stratedigm flow cytometer. The cytometer was set to automatically add and mix 20 μL of aqueous solution containing 60 μg/mL CF405M-WGA (Biotium 29028) and propidium iodide (Sigma P4864) prior to acquiring 80 μL of sample for each well.
In order to test the lifespan of model organisms on both a large-scale and with quick turn-around, a massively multiplexed method was developed to measure replicative lifespan in the short-lived model organisms Saccharomyces cerevisiae. The protocol uses green-fluorescent labeling to identify progenitor cells, red-fluorescent labeling to differentiate non-viable cells, and blue-fluorescent labeling of bud scars to determine replicative age (FIG. 1). Each parameter is measured using a flow cytometer.
To achieve high throughput, the measurement system was automated, and the assay was performed in 384-well plates. The assay was performed using an autosampler-equipped flow cytometer, in a volume of 100 μL. Growth of even a single cell and its progeny in such a small volume will result in nutrient starvation before the natural replicative lifespan is exhausted; therefore to circumvent this issue, High-Life experiments were performed in the background of the Mother Enrichment Program (MEP) (Lindstrom and Gottschling, Genetics. 2009 October; 183(2):413-22). MEP strains express a CRE recombinase fused to an estrogen-binding domain for only a short time after birth. In the presence of β-estradiol, the recombinase translocates to the nucleus where it can excise two essential genes that have been modified to contain the exogenous LoxP sequence. Addition of β-estradiol to the media thus renders newborn daughters inviable without affecting existing mother cells, preventing exponential growth of the cell population and nutrient depletion (FIG. 2A).
The High-Life method was then tested to determine if it was suitable to screening for compounds that extend replicative lifespan. […] The effect of these compounds on High-Life readings was assayed after 24 hours in culture at 10 μM concentration. As a positive control, ibuprofen was used.

| SMILES | average High-Life readings (progenitor fraction viable vs CF405M intensity) relative to controls |
| --- | --- |
| N.N.[Cl][Pt][Cl] [cisplatin] | at least slightly above controls |
| N=C(N)N/N=C/c1c(Cl)cccc1Cl [guanabenz acetate] | at least slightly above controls |
| O=C(O)c1cc(=O)c2c(OCC(O)COc3cccc4oc(C(=O)O)cc(=O)c34)cccc2o1 [cromolyn sodium] | at least slightly above controls |
| Cn1c([N+](=O)[O-])cnc1COC(N)=O [ronidazole] | at least slightly above controls |
| [H]/N=C(\N/C(=N/[H])Nc1ccc(Cl)cc1)NC(C)C [proguanil hydrochloride] | at least slightly above controls |
| CC(=O)OCC(=O)NCCCOc1cccc(CN2CCCCC2)c1 [roxatidine acetate hydrochloride] | at least slightly above controls |
| Cc1ccc(Cl)c(Nc2ccccc2C(=O)O)c1Cl [meclofenamate sodium] | at least slightly above controls |
| O=[N+]([O-])c1ccc(O)c2ncccc12 [nitroxoline, 8-hydroxy-5-nitroquinoline] | at least slightly above controls |
| CN1CCc2cccc3c2[C@H]1Cc1ccc(O)c(O)c1-3 [e hydrochloride] | at least slightly above controls |

Same assay, conditions: 100 μM ibuprofen vs untreated, multiple time points 0-48 h

| SMILES | replicative lifespan (High-Life) |
| --- | --- |
| CC(C)Cc1ccc(C(C)C(=O)O)cc1 (stereo not drawn) [ibuprofen] | increase in replicative lifespan was observed |

Same assay, conditions: testing conditions identical to Example 3 (10 μM, 24 hours)

| SMILES | lifespan extending properties (High-Life) |
| --- | --- |
| N=C(N)c1ccc(OCCCCCOc2ccc(C(=N)N)cc2)cc1 [Pentamidine] | at least some lifespan extending properties |
| CN(C)CCCN1c2ccccc2Sc2ccc(Cl)cc21 [Chlorpromazine] | at least some lifespan extending properties |
| COc1cc(Cc2cnc(N)nc2N)cc(OC)c1OC [Trimethoprim] | at least some lifespan extending properties |
| Cc1cc(NS(=O)(=O)c2ccc(N)cc2)no1 [Sulfamethoxazole] | at least some lifespan extending properties |
| Nc1nc2[nH]cc(CCc3ccc(C(=O)N[C@@H](CCC(=O)O)C(=O)O)cc3)c2c(=O)[nH]1 [Pemetrexed] | at least some lifespan extending properties |
| Cn1cnc([N+](=O)[O-])c1Sc1ncnc2nc[nH]c12 [Azathioprine] | at least some lifespan extending properties |
| CN(Cc1cnc2nc(N)nc(N)c2n1)c1ccc(C(=O)N[C@@H](CCC(=O)O)C(=O)O)cc1 [Methotrexate] | at least some lifespan extending properties |
| COc1c(C)c2c(c(O)c1CC1CC1(C)CCC(=O)O)C(=O)OC2 (stereo not drawn) [3-(2-((4-Hydroxy-6-methoxy-7-methyl-3-oxo-1,3-dihydroisobenzofuran-5-yl)methyl)-1-methylcyclopropyl)propanoic acid] | measurable lifespan extension in initial tests |
| COc1c(C)c2c(c(O)c1C/C=C(\C)CCC(=O)NCc1ccncc1)C(=O)OC2 [(E)-6-(4-hydroxy-6-methoxy-7-methyl-3-oxo-1,3-dihydroisobenzofuran-5-yl)-4-methyl-N-(pyridin-4-ylmethyl)hex-4-enamide] | at least some lifespan extending properties; also recorded: measurable lifespan extension in initial tests |
| Cc1oncc1C(=O)Nc1ccc(C(F)(F)F)cc1 [Leflunomide] | at least some lifespan extending properties |
| CCN(CC)CCCC(C)Nc1c2ccc(Cl)cc2nc2ccc(OC)cc12 (stereo not drawn) [Quinacrine] | at least some lifespan extending properties |
| NC(=O)c1ncn([C@@H]2O[C@H](CO)[C@@H](O)[C@H]2O)c1O [Mizoribine] | at least some lifespan extending properties |

Same assay, conditions: testing conditions identical to Example 3 (10 μM, 24 hours); listed as 3-(2-((4-Hydroxy-6-methoxy-7-methyl-2-oxo-1,3-dihydroisobenzofuran-5-yl)methyl)-

| SMILES | lifespan extending properties (High-Life) |
| --- | --- |
| COc1c(C)c2c(c(O)c1CC1CC1(C)CCC(=O)O)C(=O)OC2 (stereo not drawn) [3-(2-((4-Hydroxy-6-methoxy-7-methyl-3-oxo-1,3-dihydroisobenzofuran-5-yl)methyl)-1-methylcyclopropyl)propanoic acid] | at least some lifespan extending properties |

What follows are molecules tested on S. cerevisiae (assay: not given). Settings: 10 μM compound.
Assay type: cell-based
Method: To obtain the single-cell level data for the age and generation-durations of replicatively aging mother cells, data reported in Liu, P., et al., Cell Rep. 634-644 (2015) was re-analyzed. The data was collected in the same media condition (CSM 2% glucose) as reported elsewhere herein. Cells were grown for ˜24 hours in CSM 2% glucose prior to loading to the microfluidic device. Once cells were loaded, media was swapped to provide CSM 2% glucose control media (untreated), media containing DMSO as a vehicle control (American Bio AB00435), media containing 10 μM terreic acid (Sigma SML0480), media containing 10 μM mycophenolic acid (Sigma M5255), or media containing another compound at the indicated concentration. An automated microscope was used to track […], and replicative lifespan was later determined by counting the number of daughters produced before death. In the case of compound validation, only newborn cells were included in the lifespan experiment. To compare the replicative lifespan of labeled and unlabeled cells, only cells that were present within the traps at the start of the experiment were included. For these experiments, cells were loaded to the microfluidic device at an increased rate of 100 μL/min to increase the number of trapped mother cells. Green fluorescent images were also taken at the start of the experiment to confirm that the cells were visibly labeled.
Differences in lifespan characteristics were assessed through Log-Rank test using MATLAB with a cut-off value of P=0.05. The script for Log-Rank test was downloaded from MATLAB. Differences in proteasome activity were assessed using the unpaired, two-tailed, parametric t-test function of the GraphPad Prism software.
The Longevity Placement Test (LPT) was designed as a mutually exclusive, collectively exhaustive test to determine the relationship of a longevity intervention to a known genetic regulator of lifespan. For a given intervention that extends lifespan, any of three possible relationships may exist relative to a known genetic regulator of lifespan. (1) The intervention may act to extend lifespan independently from the known regulator. (2) The […] may act downstream from the known regulator, converging on a single component of the known regulator's lifespan pathway. (3) The intervention may act upstream from or upon the known regulator, ultimately modulating lifespan through the genetic regulator.
In Step 1 of the LPT, the longevity intervention is applied to a strain in which a genetic regulator of lifespan is deleted. In the event that lifespan extension from the longevity intervention is observed in this background, only possibilities (1) and (2) above remain valid (FIG. 7B). If no lifespan extension is observed, then possibilities (2) and (3) remain valid. Possibility (2) cannot be ruled out in this step, since non-saturating action by the genetic regulator could leave room for lifespan extension by the longevity intervention, while saturating action would preclude it.
In Step 2 of the LPT, an epistatic agent, which prevents lifespan extension from the longevity agent, is applied to a strain in which some upstream member of the genetic regulator's lifespan pathway has been modified to extend lifespan. This step differentiates possibility (2) from the remaining possibility after Step 1. In the event that lifespan extension from the genetic regulator's pathway is suppressed by the epistatic agent, this determines that possibility (2) is correct. In the event that no epistasis is observed, the remaining possibility, (1) or (3), is correct (FIG. 7C).

| SMILES | toxicity in Replicator RLS experiment |
| --- | --- |
| O=[N+]([O-])c1ccc(O)c2ncccc12 [nitroxoline, 8-hydroxy-5-nitroquinoline] | toxic and caused most cells to arrest immediately |

Same assay, conditions: 10 μM, supplied to young yeast cells throughout lifespan, vs untreated control

| SMILES | lifespan of yeast cells (Replicator validation) |
| --- | --- |
| N=C(N)N/N=C/c1c(Cl)cccc1Cl [guanabenz acetate] | extend the lifespan |
| [H]/N=C(\N/C(=N/[H])Nc1ccc(Cl)cc1)NC(C)C [proguanil hydrochloride] | extend the lifespan |

Same assay, conditions: 10 μg/mL folinic acid with 10 μM proguanil, Replicator device

| SMILES | suppression of the longevity effect of proguanil |
| --- | --- |
| Nc1nc(=O)c2c([nH]1)NCC(CNc1ccc(C(=O)N[C@@H](CCC(=O)O)C(=O)O)cc1)N2C=O (mixture of isomers) [folinic acid] | able to suppress the longevity effect of proguanil |
